Experimental data: article PMC2149952 (British Journal of Cancer, 1998)
Like-named read-outs stand apart in the source and are kept apart here.

Columns and labels:
[1] = in vivo
Procedure: British Joumal of Cancer (1998) 77(5), 808-81 1 ? […] Penclomedine administration by 1-h intravenous infusion on 5 consecutive days was repeated 3 weekly in the absence of dose-limiting toxicity (DLT) or disease progression. Five dose levels were investigated (22.5-340 mg m-2 day-'). Eight men and eight women were entered, median age 59 years (range 39-73 years), with good performance status (ECOG 0/1) in 11 patients. A total of 13 out of 16 patients had received previous chemotherapy. […] Neurotoxicity developed during the 1-h infusion and persisted for a variable period (maximum 5 h) after infusion. […] Penclomedine pharmacokinetic studies confirmed preclinical evidence of extensive apparent distribution (931 m-2) and rapid clearance (41 1 h-1m-2). […] Therefore, an experimental formulation of penclomedine as a 10% oil in water emulsion was developed for intravenous (i.v.) administration. […] Single treatments were effective when administered intra- venously, but the dose used in a rapid bolus push was limited by acute lethality. […] Penclomedine has also been tested in drug-resistant cell lines (doxorubicin, vincristine, cisplatinum, methotrexate, Ara-C and 5-FU) including the multidrug-resistant (MDR) phenotype. […] Preclinical toxicology studies were performed in mice, rats, and dogs. In mice, the maximum tolerated dose (MTD) was 150 mg kg-' (450 mg m-2) as a single i.v. dose and 80 mg kg-' day-' (240 mg m-2 day-'; total dose 1200 mg m-2) on a daily x 5 schedule. […] 808 Phase I trial of penclomedine 809 The aims of this phase I study were: (a) to determine the MTD of penclomedine when administered i.v. once daily for 5 days every 21 days; (b) to identify the toxicity profile of penclomedine and to determine whether this is predictable, tolerable and reversible, and to define dose-limiting toxicities in patients; (c) to determine the pharmacokinetics of penclomedine at different dose levels; (d) to define a safe dose for subsequent phase II studies of anti-tumour activity; and (e) to observe and record any possible therapeutic effectiveness of penclomedine. MATERIALS AND METHODS This was an open non-randomized study with dose escalation that continued until the dose-limiting toxicity was defined. A minimum of three patients were treated at each dose level. […] All patients were required to give written informed consent. Before commencing the study ethical approval was obtained from the Medicine and Clinical Oncology Research Ethics Sub-Committee of Lothian Health Board (ref. MCO/ 105/92) and the study was conducted according to the Helsinki Declaration. This trial was conducted under the auspices of the Cancer Research Campaign Phase I/II Clinical Trials Committee. […]

[2] = system: subrenal capsule xenograft of the human MX-1 mammary carcinoma; design: method as in Harrison 1991; conditions: oral 300 mg kg-1 day-1 on days 13, 17 and 21; for 40 days after the last treatment; ref Harrison 1991; cited from earlier work
[3] = system: drug-resistant cell lines; design: method as in Harrison et al, 1991; conditions: ref Harrison et al, 1991, cited from earlier work
[4] = design: method as in Reid et al, 1992; conditions: ref Reid et al, 1992; cited from earlier work
[5] = system: human H82 small cell lung carcinoma xenografts; design: method as in Harrison 1991; conditions: oral 445 mg kg-1 day-1; ref Harrison 1991; cited from earlier work
[6] = design: method as in personal communication, AC Smith, NCI; conditions: mice, ref personal communication, AC Smith, NCI, cited from earlier work
[7] = system: human MX-1 mammary tumour xenograft; conditions: cited from earlier work
[8] = cited from earlier work
malignancy = experiment: Phase I study: tumour response (UICC criteria); format: in vivo; conditions: 16 patients, all dose levels
Procedure: British Joumal of Cancer (1998) 77(5), 808-81 1 ? […] Penclomedine administration by 1-h intravenous infusion on 5 consecutive days was repeated 3 weekly in the absence of dose-limiting toxicity (DLT) or disease progression. Five dose levels were investigated (22.5-340 mg m-2 day-'). Eight men and eight women were entered, median age 59 years (range 39-73 years), with good performance status (ECOG 0/1) in 11 patients. A total of 13 out of 16 patients had received previous chemotherapy. […] Neurotoxicity developed during the 1-h infusion and persisted for a variable period (maximum 5 h) after infusion. […] Penclomedine pharmacokinetic studies confirmed preclinical evidence of extensive apparent distribution (931 m-2) and rapid clearance (41 1 h-1m-2). […] Therefore, an experimental formulation of penclomedine as a 10% oil in water emulsion was developed for intravenous (i.v.) administration. […] Single treatments were effective when administered intra- venously, but the dose used in a rapid bolus push was limited by acute lethality. […] Penclomedine has also been tested in drug-resistant cell lines (doxorubicin, vincristine, cisplatinum, methotrexate, Ara-C and 5-FU) including the multidrug-resistant (MDR) phenotype. […] Preclinical toxicology studies were performed in mice, rats, and dogs. […]

[9] = system: mouse CD8F, mammary carcinoma; design: method as in Plowman et al, 1989; conditions: ref Plowman et al, 1989; cited from earlier work
[10] = Plasma pharmacokinetics in phase I patients (HPLC, two-compartment model); format: in vivo
Procedure: British Joumal of Cancer (1998) 77(5), 808-81 1 ? […] Penclomedine administration by 1-h intravenous infusion on 5 consecutive days was repeated 3 weekly in the absence of dose-limiting toxicity (DLT) or disease progression. Five dose levels were investigated (22.5-340 mg m-2 day-'). Eight men and eight women were entered, median age 59 years (range 39-73 years), with good performance status (ECOG 0/1) in 11 patients. A total of 13 out of 16 patients had received previous chemotherapy. […] Neurotoxicity developed during the 1-h infusion and persisted for a variable period (maximum 5 h) after infusion. […] Penclomedine pharmacokinetic studies confirmed preclinical evidence of extensive apparent distribution (931 m-2) and rapid clearance (41 1 h-1m-2). […] Therefore, an experimental formulation of penclomedine as a 10% oil in water emulsion was developed for intravenous (i.v.) administration. […] Single treatments were effective when administered intra- venously, but the dose used in a rapid bolus push was limited by acute lethality. […] Penclomedine has also been tested in drug-resistant cell lines (doxorubicin, vincristine, cisplatinum, methotrexate, Ara-C and 5-FU) including the multidrug-resistant (MDR) phenotype. […] Preclinical toxicology studies were performed in mice, rats, and dogs. In mice, the maximum tolerated dose (MTD) was 150 mg kg-' (450 mg m-2) as a single i.v. dose and 80 mg kg-' day-' (240 mg m-2 day-'; total dose 1200 mg m-2) on a daily x 5 schedule. […] 808 Phase I trial of penclomedine 809 The aims of this phase I study were: (a) to determine the MTD of penclomedine when administered i.v. once daily for 5 days every 21 days; (b) to identify the toxicity profile of penclomedine and to determine whether this is predictable, tolerable and reversible, and to define dose-limiting toxicities in patients; (c) to determine the pharmacokinetics of penclomedine at different dose levels; (d) to define a safe dose for subsequent phase II studies of anti-tumour activity; and (e) to observe and record any possible therapeutic effectiveness of penclomedine. MATERIALS AND METHODS This was an open non-randomized study with dose escalation that continued until the dose-limiting toxicity was defined. A minimum of three patients were treated at each dose level. […] All patients were required to give written informed consent. Before commencing the study ethical approval was obtained from the Medicine and Clinical Oncology Research Ethics Sub-Committee of Lothian Health Board (ref. MCO/ 105/92) and the study was conducted according to the Helsinki Declaration. This trial was conducted under the auspices of the Cancer Research Campaign Phase I/II Clinical Trials Committee. […] Adequate bone marrow, hepatic and renal function was required (WBC > 3 x 109 1-1, platelet count > 100 x 109 1-1, serum creatinine < 120 gmmol 1-l, bilirubin < 30 gmol 1-1, and other liver function tests within twice the upper limit of normal (unless known to be related to liver metastases)). Patients were deemed ineligible in the event of pregnancy or lactation, previous chemotherapy or radiotherapy within the last 4 weeks (6 weeks for nitrosoureas or mitomycin C), the presence of another non-malignant disease that in the opinion of the investi- gator was incompatible with this protocol, concurrent administra- tion of another investigational drug, or cytotoxic, hormonal or biological therapy. Patients with brain metastases or primary brain tumours were excluded and also patients with epilepsy or chronic neurological disorders that might interfere with the assessment of neurological toxicity. Penclomedine was formulated as a de novo emulsion (in 100 ml: soybean oil, […]; lecithin, 30 mg; glycerin 20 mg and water for injection) and stored as intact vials under refrigeration (2-8?C). Penclomedine emulsions were diluted up to 1:10 using 5% dextrose solution. […] Penclomedine was supplied by the NCI DCT under the special foreign exemption mechanism established with the FDA. […]

cerebellum = system: cerebellum; design: method as in O'Reilly et al, 1996a; conditions: ref O'Reilly et al, 1996a, cited from earlier work
[11] = design: method as in O'Reilly et al, 1996b; conditions: ref O'Reilly et al, 1996b; cited from earlier work
[12] = design: method as in Prankerd et al, 1989; conditions: ref Prankerd et al, 1989; cited from earlier work
[13] = design: method as in Reid et al, 1992; conditions: ref Reid et al, 1992, cited from earlier work
[14] = mean of 10 patients, 150-340 mg m-2 day-1, initial 24 h

COc1nc(C(Cl)(Cl)Cl)c(Cl)c(OC)c1Cl [penclomedine, 3,5-Dichloro-2,4-dimethoxy-6-(trichloromethyl)pyridine]
persistence of neurotoxicity after infusion (maximum) ([1]; both, human): ≤ 5 h
dose at which dose-limiting toxicity occurred ([1]; both, human, iv, 5 days): 340 mg m-2 day-1
antiproliferative toxicities (myelosuppression, mucositis) [1]: No antiproliferative toxicities were noted
dose-limiting toxicity (DLT) ([1]; iv): Neurotoxicity (cerebellar ataxia and dizziness)
tumour regression [2]: complete regression of all tumours
activity in resistant versus wild-type cell lines ([3]; lines resistant to doxorubicin, vincristine, cisplatinum, methotrexate, Ara-C and 5-FU, including MDR phenotype): equivalent activity
sensitivity of AMSA-resistant line [3]: collaterally sensitive
sensitivity of L-PAM-resistant line [3]: resistant
in vitro metabolism [4]: subject to metabolism under both oxidative and reductive conditions
complete regressions [5]: six out of ten
partial regressions [5]: four out of ten
dose-limiting toxicity ([6]; daily x 5 schedule): bone marrow suppression
maximum tolerated dose (MTD), total dose ([6]; daily x 5 schedule): 1200 mg m-2
dose-limiting toxicity ([6]; single dose schedule): neurological
tumour-free survivors ([7]; advanced stage MX-1 mammary carcinoma, oral 135 mg kg-1 day-1 for 5 days, oil in water emulsion, ref Harrison et al, 1991): ten out of ten
anti-tumour activity ([7]; human MX-1 mammary tumour xenograft, ref Plowman et al, 1989): good activity
toxicity at the MTD ([8]; beagle dogs, 90 mg kg-1, ref Dixit et al, 1992): reversible myelosuppression
plasma penclomedine concentrations ([8]; beagle dogs, 90 mg kg-1 dose level, not associated with neurotoxicity, ref Dixit et al, 1992): 6 to 9 µg/mL
maximum tolerated dose (MTD) ([8]; beagle dogs, single 5-h infusion, ref Dixit et al, 1992): 90 mg/kg
toxicity at higher dosages ([8]; dog, in vivo): dose-limiting neurotoxicity
anti-tumour responses (malignancy): no anti-tumour responses were documented
anti-tumour activity [9]: good activity
dose dependence of total body clearance ([10]; 150-340 mg m-2 day-1): did not vary with dose
metabolites in plasma of patients ([10]; human, in vivo): not detected
apparent distribution volume (mean Vc + Vp) ([10]; human, in vivo, iv): 93 l m-2
half-life ([10]; human, in vivo, patients, read-out: apparent elimination phase half-life (t1/2 beta) (converted)): 2.4 h
half-life ([10]; human, in vivo, patients, read-out: initial distribution phase half-life (t1/2 alpha)): 0.2 h
Cld (distributional clearance), mean [10, 14]: 43 l h-1 m-2
Clt (total body clearance), mean [10, 14]: 41 l h-1 m-2
clearance ([10]; patients, i.v. infusion, abstract): 41 l h-1 m-2
cerebellar finding in preclinical models (cerebellum; after intraperitoneal administration): Purkinje cell loss
single dose producing visible pathological changes in the cerebellum (cerebellum; rats, intraperitoneal injection, may be irreversible): ≥ 150 mg kg-1
chemical species found in rat brain [11]: predominant chemical species
solubility in non-polar solvents and lipids [12]: soluble
solubility in water [12]: poorly soluble
metabolism of radiolabelled penclomedine ([13]; after both i.v. and oral administration): extensive
clearance ([13]; mice, parent drug): 114 ml min-m m-2
half-life ([13]; mice, parent drug): 1.15 h
volume of distribution ([13]; mice, parent drug): 4.8 l m-2
oral bioavailability of the parent compound ([13]; mice): 2%
